Measured values from US8378117B2 (priority 2005, dated 2013).
Where two headings read alike, the source gives them in different places.

Key:
CB2 receptor = biological target: T1, CB2 receptor (Homo sapiens, UniProt P34972); assay: Binding assay for CB2 agonists or inverse agonists (SK-N-MC membranes, [3H]-CP-55,940); conditions: for CB2 receptor binding percent inhibition: test concentration not stated; for inhibition at 0.25 µM: read-out: CB2 receptor binding percent inhibition, test concentration 0.25 μM (footnote 8); for inhibition at 0.2 µM: read-out: CB2 receptor binding percent inhibition, test concentration 0.2 μM (footnote 2)
T1 construct: expressed in transfected cells
T1 sequence (P34972 whole entry): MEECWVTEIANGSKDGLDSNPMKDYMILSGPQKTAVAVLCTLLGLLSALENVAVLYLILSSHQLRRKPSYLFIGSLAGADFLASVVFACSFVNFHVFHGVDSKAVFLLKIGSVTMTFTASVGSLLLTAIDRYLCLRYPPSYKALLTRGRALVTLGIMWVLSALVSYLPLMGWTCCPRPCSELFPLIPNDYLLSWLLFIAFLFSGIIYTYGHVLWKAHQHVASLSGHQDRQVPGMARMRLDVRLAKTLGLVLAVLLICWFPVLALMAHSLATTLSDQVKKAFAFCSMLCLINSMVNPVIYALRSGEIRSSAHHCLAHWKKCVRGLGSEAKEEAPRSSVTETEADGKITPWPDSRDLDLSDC
Method in brief: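 Membranes from SK-N-MC cells stably expressing human CB2 were incubated with radioligand and test compounds for 90 min at 30 °C in Tris-HCl buffer, pH 7.5, with MgCl2, EDTA and fatty-acid-free BSA. Filter-bound radioactivity was counted; IC50 was derived by linear regression of percent inhibition.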

CB1 receptor [1] = biological target: T2, CB1 receptor (Homo sapiens, UniProt P21554); assay: Binding assay for CB1 agonists or inverse agonists (SK-N-MC membranes, [3H]-CP-55,940); conditions: for inhibition at 0.5 µM: read-out: CB1 receptor binding percent inhibition, test concentration 0.5 μM (footnote 10); for inhibition at 1 µM: read-out: CB1 receptor binding percent inhibition, test concentration 1 μM (footnote 1); for IC50: Cannabinoid CB1 Receptor Binding IC50, calculated by linear regression from percent inhibition at various test concentrations; for inhibition at 0.25 µM: read-out: CB1 receptor binding percent inhibition, test concentration 0.25 μM (footnote 8); for inhibition at 0.2 µM: read-out: CB1 receptor binding percent inhibition, test concentration 0.2 μM (footnote 2); for CB1 receptor binding average percent inhibition: value shown is an average percent inhibition (footnote 5), concentration not given
T2 construct: expressed in transfected cells
T2 sequence (P21554 whole entry): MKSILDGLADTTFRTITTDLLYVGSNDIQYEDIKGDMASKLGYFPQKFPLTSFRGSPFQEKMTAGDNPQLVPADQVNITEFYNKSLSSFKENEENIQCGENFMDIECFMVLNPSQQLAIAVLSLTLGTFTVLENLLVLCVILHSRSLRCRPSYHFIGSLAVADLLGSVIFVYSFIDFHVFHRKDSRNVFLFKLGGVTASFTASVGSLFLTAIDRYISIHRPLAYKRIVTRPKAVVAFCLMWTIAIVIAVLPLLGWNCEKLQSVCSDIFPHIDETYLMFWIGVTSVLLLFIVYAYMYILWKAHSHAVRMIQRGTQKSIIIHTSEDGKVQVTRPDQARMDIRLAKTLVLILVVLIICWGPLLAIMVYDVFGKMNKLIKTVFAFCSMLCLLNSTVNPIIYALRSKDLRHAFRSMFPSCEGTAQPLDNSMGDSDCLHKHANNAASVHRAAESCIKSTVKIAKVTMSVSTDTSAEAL
Method in brief: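 Membranes from SK-N-MC cells stably expressing human CB1 incubated with compound and [3H]-CP-55,940 ([…]) for 90 min at 30° C in Tris-HCl pH 7.5, MgCl2, EDTA, fatty-acid-free BSA. Non-specific binding defined with 10 uM WIN 55,212; filtration, scintillation count; IC50 by linear regression.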

CB1 receptor [2] = biological target: T2, CB1 receptor; assay: cell-based
Text: The CB1 and CB2 receptors are G-protein coupled receptors (GPCR), which influence cell function via the Gi-protein. These receptors modulate the activity of intracellular adenylate cyclase, which in turn produces the intracellular signal messenger cyclic-AMP (cAMP).
At baseline, or during non-ligand bound conditions, these receptors are constitutively active and tonically suppress adenylate cyclase activity. The binding of an agonist causes further receptor activation and produces additional suppression of adenylate cyclase activity. The binding of an inverse agonist inhibits the constitutive activity of the receptors and results in an increase in adenylate cyclase activity.
By monitoring intracellular adenylate cyclase activity, the ability of compounds to act as agonists or inverse agonists can be determined.
Test compounds were evaluated in SK-N-MC cells which, using standard transfection procedures, were stably transfected with human cDNA for pcDNA3-CRE β-gal and pcDNA3 CB1 receptor (human) or pcDNA3 CB2 receptor (human). By expressing CRE β-gal, the cells produced β-galactosidase in response to CRE promoter activation by cAMP. Cells expressing CRE β-gal and either the human CB1 or CB2 receptor will produce less β-galactosidase when treated with a CB1/CB2 agonist and will produce more β-galactosidase when treated with a CB1/CB2 inverse agonist.
The cells were grown in 96-well plates under standard cell culture conditions at 37° C. in a 5% CO2 atmosphere and culture media (wherein the media was supplemented with 2 mM L-glutamine, […] sodium pyruvate, 10% FBS (fetal bovine serum) and antibiotics).
The change in forskolin induced β-galactosidase activity was determined by setting a vehicle treated cell's activity value at 100% and expressing the β-galactosidase activity measured in a corresponding compound treated cell as a percent of the vehicle treated cell activity.
The EC50 value for functional activity for compounds tested was calculated by linear regression and was obtained from studies in which varying compound concentrations were used.
Where an EC50 value was not obtained for a test compound, the value shown (in %) represents change in functional activity and was obtained from a study in which one compound concentration was used.

[3] = forskolin induced β-galactosidase activity, SK-N-MC cells, read-out: CB1 Receptor Functional Inverse Agonist EC50
[4] = CB1 Receptor Functional Inverse Agonist EC50, forskolin induced β-galactosidase activity, SK-N-MC cells
[5] = CB1 Receptor Functional Agonist EC50, SK-N-MC cells, forskolin induced β-galactosidase activity

SMILES	CB2 receptor binding percent inhibition (CB2 receptor) [%]	EC50 (CB1 receptor [2]; [4]) [nM]	IC50 (CB1 receptor [1]) [nM]	inhibition at 0.2 µM (CB2 receptor) [%]	inhibition at 0.2 µM (CB1 receptor [1]) [%]	also measured
O=C(NC1CCC1)c1nn(-c2ccc(Cl)cc2Cl)c2c1CCCCC2Cc1ccc(Cl)cc1 (stereo not shown) [Cpd 25, 8-(4-chloro-benzyl)-1-(2,4-dichloro-phenyl)-1,4,5,6,7,8-hexahydro-cycloheptapyrazole-3-carboxylic acid cyclobutylamide]	19	–	–	–	–	inhibition at 0.5 µM (CB1 receptor [1]): 30%; inhibition at 1 µM (CB1 receptor [1]): 71%; CB1 receptor binding percent inhibition (CB1 receptor [1]; test concentration not stated): 51%; EC50 (CB1 receptor [2]; [3]): 1200 nM
O=S(=O)(/C=C/c1nn(-c2ccc(F)cc2F)c2c1CCCCC2Cc1ccc(F)cc1)NN1CCCCC1 (stereo not shown) [Cpd 122, (2E)-2-[1-(2,4-difluoro-phenyl)-8-(4-fluoro-benzyl)-1,4,5,6,7,8-hexahydro-cycloheptapyrazol-3-yl]-ethenesulfonic acid piperidin-1-ylamide]	0	60	–	–	–	inhibition at 1 µM (CB1 receptor [1]): 0%
O=C(NN1CCCCC1)c1nn(-c2ccc(Cl)cc2Cl)c2c1CCCC/C2=C\c1ccc(Cl)cc1 [Cpd 133, (8E)-8-(4-chloro-benzylidene)-1-(2,4-dichloro-phenyl)-1,4,5,6,7,8-hexahydro-cycloheptapyrazole-3-carboxylic acid piperidin-1-ylamide]	–	30	100	–	–	inhibition at 0.25 µM (CB2 receptor): 29%; inhibition at 0.25 µM (CB1 receptor [1]): 66%
O=C(N[C@H]1c2ccccc2C[C@H]1O)c1nn(-c2ccc(Cl)cc2Cl)c2c1CCCC/C2=C\c1ccc(F)cc1 [Cpd 208, (8E)-1-(2,4-dichloro-phenyl)-8-(4-fluoro-benzylidene)-1,4,5,6,7,8-hexahydro-cycloheptapyrazole-3-carboxylic acid [(1S,2R)-2-hydroxy-indan-1-yl]-amide]	–	10	70	31	76	–
COC(=O)[C@@H](Cc1ccc(O)cc1)NC(=O)c1nn(C2CCCCC2)c2c1CCCCC2Cc1ccc(F)cc1 (stereo partly drawn) [Cpd 83, (2R)-2-{[1-cyclohexyl-8-(4-fluoro-benzyl)-1,4,5,6,7,8-hexahydro-cycloheptapyrazole-3-carbonyl]-amino}-3-(4-hydroxy-phenyl)-propionic acid methyl ester]	–	–	100	–	–	IC50 (CB2 receptor; Cannabinoid CB2 Receptor Binding IC50, calculated by linear regression from percent inhibition at various test concentrations): 10 nM; CB2 receptor binding average percent inhibition (CB2 receptor; value shown is an average percent inhibition (footnote 5), concentration not given): 98%; CB1 receptor binding average percent inhibition (CB1 receptor [1]): 90%; EC50 (CB1 receptor [2]; [5]): 1700 nM
CC(NC(=O)c1nn(-c2ccc(Cl)cc2Cl)c2c1CCCC/C2=C\c1ccc(Cl)cc1)c1ccc(Cl)cc1 (stereo not shown) [Cpd 137, (8E)-8-(4-chloro-benzylidene)-1-(2,4-dichloro-phenyl)-1,4,5,6,7,8-hexahydro-cycloheptapyrazole-3-carboxylic acid [1-(4-chloro-phenyl)-ethyl]-amide]	–	30	10	–	–	inhibition at 0.25 µM (CB2 receptor): 0%; inhibition at 0.015 µM (CB1 receptor [1]; read-out: CB1 receptor binding percent inhibition, test concentration 0.015 μM (footnote 7)): 57%; inhibition at 0.25 µM (CB1 receptor [1]): 77%
O=C(N[C@@H]1c2ccccc2C[C@@H]1O)c1nn(-c2ccc(Cl)cc2Cl)c2c1CCCCC2Cc1cccc(Cl)c1 (single isomer, unassigned) [Cpd 113, (8S*)-8-(3-chloro-benzyl)-1-(2,4-dichloro-phenyl)-1,4,5,6,7,8-hexahydro-cycloheptapyrazole-3-carboxylic acid [(1R,2S)-2-hydroxy-indan-1-yl]-amide]	28	100	–	–	–	inhibition at 0.5 µM (CB1 receptor [1]): 44%; CB1 receptor binding percent inhibition (CB1 receptor [1]; test concentration 1 μM (footnote 1), 1 µM): 62%; CB1 receptor binding percent inhibition (CB1 receptor [1]; test concentration not stated): 53%
O=C(NN1CCOCC1)c1nn(-c2ccc(Cl)cc2Cl)c2c1CCCCC2Cc1cccc(Cl)c1 (stereo not shown) [Cpd 117, 8-(3-chloro-benzyl)-1-(2,4-dichloro-phenyl)-1,4,5,6,7,8-hexahydro-cycloheptapyrazole-3-carboxylic acid morpholin-4-ylamide]	22	–	–	–	–	inhibition at 1 µM (CB1 receptor [1]): 44%; EC50 (CB1 receptor [2]; [3]): 300 nM
C[C@@H](NC(=O)c1nn(-c2ccc(S(N)(=O)=O)cc2)c2c1CCCC/C2=C\c1ccc(Cl)cc1)C1CCCCC1 [Cpd 185, (8E)-8-(4-chloro-benzylidene)-1-(4-sulfamoyl-phenyl)-1,4,5,6,7,8-hexahydro-cycloheptapyrazole-3-carboxylic acid [(1R)-1-cyclohexyl-ethyl]-amide]	–	< 3	30	56	75	–
O=C(N[C@@H](CO)c1ccccc1)c1n[nH]c2c1CCCCC2Cc1cccc(Cl)c1 (stereo partly drawn) [Cpd 165, 8-(3-chloro-benzyl)-1,4,5,6,7,8-hexahydro-cycloheptapyrazole-3-carboxylic acid [(1R)-2-hydroxy-1-phenyl-ethyl]-amide]	–	–	–	98	79	EC50 (CB1 receptor [2]; [5]): 30 nM
COc1ccc(/C=C2\CCCCc3c(C(=O)NC(C)c4ccccn4)nn(-c4ccc(Cl)cc4Cl)c32)cc1 (stereo not shown) [Cpd 222, (8E)-1-(2,4-dichloro-phenyl)-8-(4-methoxy-benzylidene)-1,4,5,6,7,8-hexahydro-cycloheptapyrazole-3-carboxylic acid (1-pyridin-2-yl-ethyl)-amide]	–	30	30	41	48	–
COc1ccc(/C=C2\CCCCc3c(C(=O)NN4CCCCC4)nn(-c4ccc(Cl)cc4Cl)c32)cc1 [Cpd 217, (8E)-1-(2,4-dichloro-phenyl)-8-(4-methoxy-benzylidene)-1,4,5,6,7,8-hexahydro-cycloheptapyrazole-3-carboxylic acid piperidin-1-ylamide]	–	20	60	52	75	–
COC(=O)[C@@H](Cc1ccc(F)cc1)NC(=O)c1nn(-c2ccc(Cl)cc2Cl)c2c1CCCC[C@@H]2Cc1cccc(F)c1 [Cpd 77, (2R)-2-{[(8R)-1-(2,4-dichloro-phenyl)-8-(3-fluoro-benzyl)-1,4,5,6,7,8-hexahydro-cycloheptapyrazole-3-carbonyl]-amino}-3-(4-fluoro-phenyl)-propionic acid methyl ester]	28	100	–	–	–	inhibition at 1 µM (CB1 receptor [1]): 44%; CB1 receptor binding percent inhibition (CB1 receptor [1]; test concentration not stated): 51%; CB1 receptor binding average percent inhibition (CB1 receptor [1]): 57%
O=C(NN1CCCCC1)c1nn(-c2ccc(Cl)cc2Cl)c2c1CCCCC2Cc1ccc(F)cc1 (stereo not shown) [Cpd 85, 1-(2,4-dichloro-phenyl)-8-(4-fluoro-benzyl)-1,4,5,6,7,8-hexahydro-cycloheptapyrazole-3-carboxylic acid piperidin-1-ylamide]	5	–	–	–	–	CB1 receptor binding average percent inhibition (CB1 receptor [1]): ^(5)39%; EC50 (CB1 receptor [2]; [3]): 300 nM
COc1ccc(/C=C2\CCCCc3c(C(=O)N[C@@H]4CCc5ccccc54)nn(-c4ccc(Cl)cc4Cl)c32)cc1 [Cpd 216, (8E)-1-(2,4-dichloro-phenyl)-8-(4-methoxy-benzylidene)-1,4,5,6,7,8-hexahydro-cycloheptapyrazole-3-carboxylic acid (1R)-indan-1-ylamide]	–	50	9	33	91	–
O=C(N[C@@H](CO)Cc1ccccc1)c1n[nH]c2c1CCCCC2Cc1cccc(Cl)c1 (stereo partly drawn) [Cpd 167, 8-(3-chloro-benzyl)-1,4,5,6,7,8-hexahydro-cycloheptapyrazole-3-carboxylic acid [(1R)-1-benzyl-2-hydroxy-ethyl]-amide]	–	–	–	97	57	EC50 (CB1 receptor [2]; [5]): 50 nM
